Test system: VSV-GFP
Test: microbe, parasite or virus in culture
Type: cell-based, vesicular stomatitis virus

C[C@H](CCCC(C)(C)O)[C@H]1CC[C@H]2[C@@H]3CC=C4C[C@@H](O)CC[C@]4(C)[C@H]3CC[C@]12C [25HC, 25-hydroxycholesterol]
VSV infection in HEK293T overexpressing active forms of SREBP1-A, SREBP1-B, and SREBP2: inhibited VSV infection

Reference: patent publication US11020409B2, “Broad antiviral therapy with membrane modifying oxysterols” (priority 2012, dated 2021)
